The numbers were not newly measured in patent US7074355B2, “Process for dry granulation by agitative balling for the preparation of chemically stable, dry-flow, low compact, dust free, soluble spherical granules of phosphoroamidothioate” (United Phosphorus Ltd., priority 2003, dated 2006), which cites them from elsewhere.

The subject of this series is insects. Particulars: systemic and contact insecticide of moderate persistence.

Consider `COP(=O)(NC(C)=O)SC` (stereo not shown) [Acephate], for which the residual activity lasting was 10 to 15 days.
